These results are taken from PMC9236245, “Glycyrrhiza uralensis promote the metabolism of toxic components of Aconitum carmichaeli by CYP3A and alleviate the development of chronic heart failure” (PLoS ONE, 2022).

Where “and” joins values, the source holds several entries; their conditions need not be identical. Equal values may be shown once.

The nature of data set [1]: Metabolism of AC, MA and HA in rat liver microsomes by HPLC. To be noted: NADPH. The class given is in vitro ADME. The protocol:
Agilent C18 column (4.60 mm × 150 mm, 5μm), mobile phase A was 20 mmol / L ammonium acetate and 0.1% formic acid aqueous solution, mobile phase B was methanol, isocratic elution, A: B = 60:40, flow rate was 1 ml / min, detection wavelength was 240 nm, column temperature was 30°C, injection volume was 20 μL.
1 mg / ML microsome 100 μL, PBS 75 μL and aconitine alkaloids 5 μL (AC, MA and HA: 1 mmol / L) were added. 20 μL NADPH (10 mmol / L) was added to start the reactionand, AC and HA were incubated for 90 min, MA were incubated for 120 min. The reaction was terminated by adding 200 μL glacial acetonitrile, 12 000 r / min at 4°C for 10 min, and 20 μL supernatant was used for HPLC.
(In general: Liver microsomes are a subcellular fraction often used to study metabolism.)

Data set [2] in a line: Plasma concentration of AC, MA and HA in rats by LC-MS/MS. More on the design: Plasma concentration: unit not given here. Particulars: for plasma concentration with compatibility of Glycyrrhizae and Aconitum vs Aconitum alone: 2 mL/kg by gavage; for Plasma concentration: single animals. It is filed as in vivo, rat. On the procedure:
12 SD rats were randomly divided into Aconitum and Glycyrrhizae combind with Aconitum group, 6 rats in each group, 2 mL / kg was given by gavage respectively.

The nature of data set [3]: Metabolic stability (t1/2, CLint) of AC, MA and HA in RLMs of pretreated rats. To be noted: SD, rat, microsomes.
Data set [4] is described as follows: in vitro. To be noted: SD, rat, microsomes.
The subject of data set [5] is CYP3A1 mRNA. Description: CYP3A1 mRNA expression in rat liver after 14 days dosing (RT-PCR). It is filed as in vivo. Particulars: positive induction 0.08 g/kg/D, single replicates. The text has this: (§1) All animal procedures, including killing, were approved by the Institutional Animal Care and Use Committee at Medical College of Shanghai University of TCM. 25 SD rats, weighing 180–200 g, were purchased from Shanghai SLAC Laboratory Animal company and fed in SPF environmental condition. The rats were randomly divided into negative control, phenobarbital positive induction (0.08 g / kg / D) and Glycyrrhiza groups with different concentrations (0.33 g / kg / D, 1 g / kg / D and 3 g / kg / D), with 5 rats in each group, intragastric administration for 14 days. The phenobarbital induced group was given intraperitoneal injection three days before treatment. The animals were killed by CO2 asphyxiation, liver microsomes were prepared and were used to detect the expression of CYP3A1 / 2 mRNA in liver tissue.
(§2) Total RNA was extracted using Trizol reagent according to the manufacturer’s instructions. 1μg of total RNA was transcribed to cDNA using the PrimeScriptTM RT Master Mix kit (TaKaRa, China). Quantitative RT-PCR was performed in a reaction volume of 20μL cDNA on ABI system (Applied Biosystems, Life Technologies). The average cycle thresholds (Ct) were employed to quantify fold-change. The 2^-△△CT method was reported to calculate relative gene expression levels.

In data set [6] the test system is CYP3A2 mRNA. Description: CYP3A2 mRNA expression in rat liver after 14 days dosing (RT-PCR). It is filed as in vivo. Particulars: positive induction 0.08 g/kg/D, single replicates.
From the text: as §1, §2

The subject of data set [7] is CHF rat model. Briefly: ATP, ADP and AMP in left ventricular myocardium (HPLC) of ADR-induced CHF rats. The class given is in vivo. To be noted: 5 mL/kg/D gavage 4 weeks. On the procedure:
According to reference, the rat model of CHF was established by intraperitoneal injection of ADR (2.5 mg / kg) once a week for six weeks. 6 weeks later, the rats were randomly divided into model group, Aconitum (0.3 g / mL), Glycyrrhizae combind with Aconitum (0.6 g / mL) and Captopril (1.25 mg / mL) group. Each treatment group was given 5 mL / kg / D by gavage for 4 weeks, the normal and model group were given the same volume of distilled water by gavage. After the last administration, the rats were killed by CO2 asphyxia, and the indexes were determined.
Weighed 100 mg of left ventricular myocardium of rats, cut into pieces, added 500 μL 4.2% perchloric acid, homogenized in ice bath, 3 000 r / min, 4°C for 15 min. Took 200 μL of the supernatant, added 135 μL of 1 mol / L NaOH, adjusted the pH to about 6.0, shaked and mixed, 8 000 r / min, 4°C for 10 min, and took 20 μL of the supernatant for HPLC analysis. There was a good linear relationship between the peak area measured by HPLC and the concentrations of ATP, AMP and ADP, and the content was calculated according to the standard curve.

Setting [8] is: Aconitum 2 mL/kg gavage, 10 min.
Where [9] appears, read: Aconitum 2 mL/kg gavage, 20 min.
The mark [10] stands for this setting: Aconitum 2 mL/kg gavage, 30 min.
Setting [11] is: Aconitum 2 mL/kg gavage, 45 min.
Setting [12] is: Aconitum 2 mL/kg gavage, 60 min.
Setting [13] is: Aconitum 2 mL/kg gavage, 90 min.
Setting [14] is: Aconitum 2 mL/kg gavage, 120 min.
Setting [15] is: Aconitum 2 mL/kg gavage, 240 min.
Where [16] appears, read: Aconitum 2 mL/kg gavage, 360 min.
Setting [17] is: Aconitum 2 mL/kg gavage, 480 min.
[18] abbreviates: Glycyrrhizae + Aconitum 2 mL/kg gavage, 10 min.
[19] abbreviates: Glycyrrhizae + Aconitum 2 mL/kg gavage, 20 min.
Setting [20] is: Glycyrrhizae + Aconitum 2 mL/kg gavage, 30 min.
Setting [21] is: Glycyrrhizae + Aconitum 2 mL/kg gavage, 45 min.
Setting [22] is: Glycyrrhizae + Aconitum 2 mL/kg gavage, 60 min.
[23] abbreviates: Glycyrrhizae + Aconitum 2 mL/kg gavage, 90 min.
The mark [24] stands for this setting: Glycyrrhizae + Aconitum 2 mL/kg gavage, 120 min.
[25] abbreviates: Glycyrrhizae + Aconitum 2 mL/kg gavage, 240 min.
Where [26] appears, read: Glycyrrhizae + Aconitum 2 mL/kg gavage, 360 min.
[27] abbreviates: Glycyrrhizae + Aconitum 2 mL/kg gavage, 480 min.
[28] abbreviates: RLMs of rats pretreated with Glycyrrhizae 0.33 g/kg.
Where [29] appears, read: RLMs of rats pretreated with Glycyrrhizae 1 g/kg.
Setting [30] is: RLMs of rats pretreated with Glycyrrhizae 3 g/kg.
The mark [31] stands for this setting: RLMs of rats pretreated with Phenobarbital 0.08 g/kg.
Setting [32] is: t1/2, RLMs of rats pretreated with Glycyrrhizae 0.33 g/kg.
The mark [33] stands for this setting: t1/2, RLMs of rats pretreated with Glycyrrhizae 1 g/kg.
[34] abbreviates: t1/2, RLMs of rats pretreated with Glycyrrhizae 3 g/kg.
[35] abbreviates: t1/2, RLMs of rats pretreated with Phenobarbital 0.08 g/kg.

Regarding `CCN1C[C@]2(COC)[C@H](O)C[C@H](OC)[C@@]34[C@@H]5C[C@@]6(O)[C@H](OC(=O)c7ccccc7)[C@@H]5[C@@](OC(C)=O)([C@@H]([C@H](OC)[C@H]23)[C@@H]14)[C@@H](O)[C@@H]6OC` [AC, aconitine], in data set [1], the “metabolites produced in RLMs” value was “three metabolites (A1-A3)”. Also, in data set [2], the “plasma concentration with compatibility of Glycyrrhizae and Aconitum vs Aconitum alone” value is “significantly lower”. Further, the Plasma concentration in data set [2] (setting [8]) is 0.0562 and 0.0808 and 0.0292 and 0.0385 and 0.0141; in data set [2] (setting [9]), 0.0945 and 0.121 and 0.0589 and 0.0443 and 0.0407; in data set [2] (setting [10]), 0.0925 and 0.117 and 0.0557 and 0.0722 and 0.05; in data set [2] (setting [11]), 0.118 and 0.156 and 0.082 and 0.0566 and 0.0273; in data set [2] (setting [12]), 0.13 and 0.176 and 0.0973 and 0.0545 and 0.0474; in data set [2] (setting [13]) it was 0.143 and 0.138 and 0.108 and 0.0529 and 0.0439. In addition, the Plasma concentration in data set [2] (setting [14]) was 0.0793 and 0.127 and 0.0603 and 0.0355 and 0.024; in data set [2] (setting [15]) it was 0.0629 and 0.0516 and 0.0251 and 0.0305 and 0.0211; in data set [2] (setting [16]), 0.0287 and 0.0253 and 0.00749 and 0.0187 and 0.0173; in data set [2] (setting [17]), 0.0164 and 0.00823 and 0.0095 and 0.00724 and 0.00602; in data set [2] (setting [18]) it was 0.0175 and 0.0293 and 0.0191 and 0.0122 and 0.0147; in data set [2] (setting [19]) it was 0.0115 and 0.059 and 0.0448 and 0.017 and 0.0239. The Plasma concentration in data set [2] (setting [20]) is 0.0218 and 0.0596 and 0.0401 and 0.018 and 0.0426; in data set [2] (setting [21]) it was 0.0355 and 0.0389 and 0.0637 and 0.0227 and 0.0397; in data set [2] (setting [22]) it was 0.0309 and 0.0518 and 0.0337 and 0.0343 and 0.0443; in data set [2] (setting [23]), 0.018 and 0.039 and 0.0371 and 0.0238 and 0.0457; in data set [2] (setting [24]), 0.0163 and 0.0373 and 0.0236 and 0.0131 and 0.0446; in data set [2] (setting [25]) it was 0.00197 and 0.0253 and 0.00871 and 0.00772 and 0.0267. In addition, the Plasma concentration in data set [2] (setting [26]) is 0.00413 and 0.00482 and 0 and 0.00225 and 0.0062; in data set [2] (setting [27]), 0 (4×) and 0.00207. Further, the microsomal CLint at 25 µM in data set [3] (RLMs of Control rats) came to 10.8 ± 0.4 µL/min/mg; in data set [3] (setting [28]), 14.7 ± 0.23 µL/min/mg; in data set [3] (setting [29]), 15.5 ± 0.46 µL/min/mg; in data set [3] (setting [30]), 11.6 ± 0.4 µL/min/mg; in data set [3] (setting [31]) it was 16.3 ± 0.61 µL/min/mg. In addition, the half-life at 25 µM was determined as 4.28 ± 0.159 h in data set [3] (t1/2, RLMs of Control rats); 3.15 ± 0.05 h in data set [3] (setting [32]); 2.99 ± 0.0877 h in data set [3] (setting [33]); 3.99 ± 0.138 h in data set [3] (setting [34]); 2.84 ± 0.108 h in data set [3] (setting [35]).

In the case of `COC[C@@]12CC[C@H](OC)[C@]34C(C([C@H](OC)[C@H]13)[C@]1(OC(C)=O)[C@H]3[C@@H](OC(=O)c5ccccc5)[C@](O)(C[C@H]34)[C@@H](OC)[C@@H]1O)N(C)C2` [HA, hypaconitine], in data set [1], the “metabolites produced in RLMs” value is “two metabolites”. Moreover, in data set [2], the “plasma concentration with compatibility of Glycyrrhizae and Aconitum vs Aconitum alone” value is given as “significantly lower”. Also, the Plasma concentration is 0.964 and 1.77 and 0.583 and 0.492 and 0.28 in data set [2] (setting [8]); 1.07 (2×) and 1.95 and 0.668 and 0.566 in data set [2] (setting [9]); 1.2 and 2.66 and 1.06 and 0.923 and 0.551 in data set [2] (setting [10]); 1.22 and 2.65 and 1.35 and 0.88 and 0.451 in data set [2] (setting [11]); 1.83 and 3.39 and 1.29 and 0.737 and 0.573 in data set [2] (setting [12]); 2.02 and 2.54 and 1.07 and 0.724 and 0.474 in data set [2] (setting [13]). Moreover, the Plasma concentration in data set [2] (setting [14]) is 1.44 and 2.32 and 0.775 and 0.501 and 0.434; in data set [2] (setting [15]) it was 0.658 and 0.936 and 0.168 and 0.375 and 0.151; in data set [2] (setting [16]) it was 0.287 and 0.417 and 0.0407 and 0.175 and 0.0302; in data set [2] (setting [17]) it was 0.104 and 0.179 and 0.00087 and 0.0398 and 0; in data set [2] (setting [18]) it was 0.519 and 1.06 and 0.945 and 0.416 and 0.07; in data set [2] (setting [19]), 0.52 and 1.66 and 1.4 and 0.661 and 0.18. Besides, the Plasma concentration was 0.774 and 1.59 and 1.79 and 1.06 and 0.53 in data set [2] (setting [20]); 1.02 and 1.61 and 1.74 and 0.809 and 0.75 in data set [2] (setting [21]); 1.15 and 1.58 and 1.52 and 0.84 and 0.77 in data set [2] (setting [22]); 0.845 and 1.4 and 1.33 and 0.925 and 0.66 in data set [2] (setting [23]); 0.763 and 1.16 and 1.07 and 0.744 and 0.75 in data set [2] (setting [24]); 0.288 and 0.492 and 0.287 and 0.316 and 0.924 in data set [2] (setting [25]). For the same compound, the Plasma concentration was 0.34 and 0.239 and 0.0767 and 0.225 and 0.0462 in data set [2] (setting [26]); 0 and 0.104 and 0.0428 and 0.0921 and 0.181 in data set [2] (setting [27]). In addition, the microsomal CLint in data set [4] (RLMs of Control rats) was 10.5 ± 0.23 µL/min/mg; in data set [4] (setting [28]), 12.1 ± 0.23 µL/min/mg; in data set [4] (setting [29]) it was 13.6 ± 0.4 µL/min/mg; in data set [4] (setting [30]), 11.6 ± 0.4 µL/min/mg; in data set [4] (setting [31]), 14 ± 0.4 µL/min/mg. The half-life was 4.39 ± 0.095 h in data set [4] (t1/2, RLMs of Control rats); 3.81 ± 0.0717 h in data set [4] (setting [32]); 3.4 ± 0.1 h in data set [4] (setting [33]); 3.99 ± 0.138 h in data set [4] (setting [34]); 3.3 ± 0.0943 h in data set [4] (setting [35]).

Regarding `CCC1(c2ccccc2)C(=O)NC(=O)NC1=O` [Phenobarbital], the “CYP3A1 mRNA” value in data set [5] is 8.832 and 7.88 and 8.097. Further, the “CYP3A2 mRNA” value in data set [6] is 3.986 and 3.344 and 3.449.

As to `C[C@H](CS)C(=O)N1CCC[C@H]1C(=O)O` [captopril, Captopril], in data set [7], the “ADP level in left ventricular myocardium, difference vs model group” value is listed as -0.07185 ± 0.02716.

For orientation: microsomal CLint means a measure of how fast metabolising enzymes remove a compound, apart from limits set by blood flow. In general, half-life refers to the time needed for the level to fall by half in the phase considered.
